Data from ChEMBL document CHEMBL1143508, “Design, synthesis, and structure-activity relationships of tetrahydroquinoline-based farnesyltransferase inhibitors” (Bioorg Med Chem Lett, 2005).

What was measured:
[1] = target: T1, Protein farnesyltransferase (Rattus norvegicus) (UniProt Q04631+Q02293); test: Percentage cellular reversion of H-ras transformed Rat-1 cells at 100 nM; format: functional, cell-based
[2] = target: Protein farnesyltransferase (Homo sapiens, UniProt P49354+P49356); test: Inhibition of human farnesyltransferase; format: protein-complex assay
[3] = target: T1, Protein farnesyltransferase (Rattus norvegicus); test: Percentage cellular reversion in H-ras transformed Rat-1 cells at 1 uM; format: functional, cell-based
[4] = target: Protein farnesyltransferase (Rattus norvegicus, UniProt Q02293+Q04631); test: Inhibition of cellular reversion in H-ras transformed Rat-1 cells; format: functional, cell-based
[5] = target: T1, Protein farnesyltransferase (Rattus norvegicus); test: Percentage cellular reversion in H-ras transformed Rat-1 cells at 10 uM; format: functional, cell-based

Row | SMILES | Cellular reversion [1] [%] | IC50 [2] [nM] | Cellular reversion [3] [%] | IC50 [4] [nM] | Cellular reversion [5] [%]
1 | Cn1cncc1CN1CC(N(Cc2ccccc2)S(=O)(=O)c2ccccc2)Cc2cc(C#N)ccc21 (stereo not given) | 85 | 3 |  |  | 
2 | CN(C1Cc2cc(C#N)ccc2N(Cc2cncn2C)C1)S(=O)(=O)c1ccccn1 (stereo not given) | 0 | 3.1 | 85 |  | 
3 | Cn1cncc1CN1CC(N(CC2CCCCC2)S(=O)(=O)c2ccccc2)Cc2cc(C#N)ccc21 (stereo not given) | 0 | 48 | 90 |  | 
4 | Cn1cncc1CN1CC(N(CC(=O)OC(C)(C)C)S(=O)(=O)c2ccccn2)Cc2cc(C#N)ccc21 (stereo not given) | 85 |  |  | 10 | 
5 | Cn1cncc1CN1CC(N(Cc2ccsc2)S(=O)(=O)c2cccnc2)Cc2cc(C#N)ccc21 (stereo not given) | 85 | 0.9 |  |  | 
6 | Cn1cncc1CN1CC(N(CCc2ccccc2)S(=O)(=O)c2ccccc2)Cc2cc(C#N)ccc21 (stereo not given) | 0 | > 5000 |  |  | 
7 | Cn1cncc1CN1CC(N(CC(=O)OC(C)(C)C)S(=O)(=O)c2cccnc2)Cc2cc(C#N)ccc21 (stereo not given) | 30 | 3.9 |  | 225 | 
8 | Cn1cc(S(=O)(=O)N(Cc2ccsc2)C2Cc3cc(C#N)ccc3N(Cc3cncn3C)C2)cn1 (stereo not given) | 95 |  |  |  | 
9 | Cn1cncc1CN1CC(N(Cc2ccccc2)S(=O)(=O)c2cccnc2)Cc2cc(C#N)ccc21 (stereo not given) | 85 | 0.9 |  | 70 | 
10 | Cn1cnc(S(=O)(=O)N(Cc2ccsc2)C2Cc3cc(C#N)ccc3N(Cc3cncn3C)C2)c1 (stereo not given) | 65 |  |  |  | 
11 | CN(C1Cc2cc(C#N)ccc2N(Cc2cncn2C)C1)S(=O)(=O)c1cccnc1 (stereo not given) | 0 | 17 | 10 |  | 
12 | CN(C1Cc2cc(C#N)ccc2N(Cc2cncn2C)C1)S(=O)(=O)c1cnn(C)c1 (stereo not given) | 0 | 7.6 | 25 |  | 
13 | Cn1cncc1CN1C[C@@H](N(Cc2ccsc2)S(=O)(=O)c2ccccc2)Cc2cc(C#N)ccc21 | 85 | 1.1 |  |  | 
14 | Cn1cncc1CN1C[C@H](N(Cc2ccsc2)S(=O)(=O)c2ccccc2)Cc2cc(C#N)ccc21 | 80 | 2.8 |  |  | 
15 | Cn1cncc1CN1CC(N(Cc2ccccc2)S(C)(=O)=O)Cc2cc(C#N)ccc21 (stereo not given) | 0 | 2.8 | 85 |  | 
16 | C=C(C)CN(C1Cc2cc(C#N)ccc2N(Cc2cncn2C)C1)S(=O)(=O)c1ccccn1 (stereo not given) | 85 | 0.9 |  | 60 | 
17 | Cn1cncc1CN1CC(NS(=O)(=O)c2ccccc2)Cc2cc(C#N)ccc21 (stereo not given) | 0 | 10 |  |  | 30
18 | CN(C1Cc2cc(C#N)ccc2N(Cc2cncn2C)C1)S(=O)(=O)c1ccccc1 (stereo not given) | 45 | 3.5 |  |  | 
19 | Cn1cc(S(=O)(=O)N(Cc2ccccc2)C2Cc3cc(C#N)ccc3N(Cc3cncn3C)C2)cn1 (stereo not given) | 75 | 4.6 |  |  | 
20 | Cn1cnc(S(=O)(=O)N(CC(=O)OC(C)(C)C)C2Cc3cc(C#N)ccc3N(Cc3cncn3C)C2)c1 (stereo not given) | 90 | 0.6 |  | 30 | 
21 | Cn1cncc1CN1CC(N(Cc2ccsc2)S(=O)(=O)c2ccccn2)Cc2cc(C#N)ccc21 (stereo not given) | 95 |  |  | 13 | 
22 | Cn1cncc1CN1CC(N(CC(=O)OC(C)(C)C)S(=O)(=O)c2ccccc2)Cc2cc(C#N)ccc21 (stereo not given) | 75 | 4 |  |  | 
23 | C=C(C)CN(C1Cc2cc(C#N)ccc2N(Cc2cncn2C)C1)S(C)(=O)=O (stereo not given) | 90 | 0.8 |  | 8 | 
24 | C=C(C)CN(C1Cc2cc(C#N)ccc2N(Cc2cncn2C)C1)S(=O)(=O)c1ccccc1 (stereo not given) | 95 | 0.9 |  |  | 
25 | Cn1cncc1CN1CC(N(Cc2ccsc2)S(=O)(=O)c2ccccc2)Cc2cc(C#N)ccc21 (racemic) | 90 | 2.5 |  |  | 
26 | C=C(C)CN(C1Cc2cc(C#N)ccc2N(Cc2cncn2C)C1)S(=O)(=O)c1cccnc1 (stereo not given) | 70 | 1.2 |  | 100 | 
27 | C=C(C)CN(C1Cc2cc(C#N)ccc2N(Cc2cncn2C)C1)S(=O)(=O)c1cn(C)cn1 (stereo not given) | 80 | 0.3 |  | 50 | 
28 | Cn1cncc1CN1CC(N(Cc2ccccc2)S(=O)(=O)c2ccccn2)Cc2cc(C#N)ccc21 (stereo not given) | 90 | 2.6 |  | < 20 | 
29 | Cn1cnc(S(=O)(=O)N(Cc2ccccc2)C2Cc3cc(C#N)ccc3N(Cc3cncn3C)C2)c1 (stereo not given) | 75 | 1.1 |  |  | 
